Source: ChEMBL document CHEMBL5727130, “Pyridone derivative, pharmaceutical containing the same and methods of use thereof” (2018)
pIC50: −log10 of the molar value.

Assay: Inhibition Assay: The TACE inhibition test was carried out by measuring TACE activity in the presence and the absence of the test substance using the thus-obtained TACE as an enzyme, and a fluorescent synthetic substrate Nma(N-methylanthranilic acid)-Leu-Ala-Gln-Ala-Val-Arg-Ser-Ser-Lys(Dnp(dinitrophenyl))-D-Arg-NH2 (SEQ ID NO: 1) including the TACE-cleaved sequence of a membrane-bound TNF as a substrate. The TACE inhibition test method is shown below. Namely, 90 μL of an enzyme solution prepared with an assay buffer A (50 mM tris-hydrochloric acid buffer (pH 7.5) including 200 mM sodium chloride, 5 mM calcium chloride, 10 μM zinc sulfate, and 2 mg/mL bovine serum albumin) and 90 μL of a fluorescent synthetic substrate prepared with an assay buffer B (50 mM tris-hydrochloric acid buffer (pH 7.5) including 200 mM sodium chloride, 5 mM calcium chloride, 10 μM zinc sulfate, and 0.05% PLURONIC F-68) were mixed together, and reacted at 37° C. for 1.5 hours. Enzyme activity was then determined by measuring with a fluorescence intensity meter (Labsystems, Fluoroskan Ascent) at an excitation wavelength of 355 nm and a measurement wavelength of 460 nm.

pIC50 | Compound
> 7.00 | Cc1cccn(CC2(c3ccc(F)c(F)c3)NC(=O)NC2=O)c1=O (configuration not stated)
> 7.00 | Cc1cccn(CC2(c3ccc(Oc4ccc(Cl)cc4)cc3)NC(=O)NC2=O)c1=O (configuration not stated)
